These results are taken from PMC8053108, “RPA2 winged-helix domain facilitates UNG-mediated removal of uracil from ssDNA; implications for repair of mutagenic uracil at the replication fork” (Nucleic Acids Research, 2021).

The assay has as its system UNG2 or N-terminally truncated versions. Kind of assay: Uracil excision in presence of increasing amounts of purified free WH domain. In kind it is biochemical, human. The settings on record: 0.4 nM enzyme, 0-50 μM purified WH domain, 100 nM DNA. The protocol: 3′-FAM-labelled, PAGE-purified oligonucleotide substrates were from Sigma-Aldrich. Unless otherwise indicated, the substrate (25 nt) harboured uracil at position 10 in a polyC sequence to avoid secondary structures (U10-25*: […]-FAM). Double-stranded substrate was generated by annealing (heating followed by slow cooling) U10-25* to a non-labelled complementary oligo (A16-25: […]). All assays were performed at 22°C in 10 mM Tris–HCl pH 7.5, 50 mM NaCl, 1 mM DTT, 0.1 mM EDTA, 0.5 mg/ml BSA.
Varying amounts of UNG were then added, and the mixtures incubated for 10 min in a water bath. To avoid unspecific interactions and binding of enzyme and DNA to the assay tube surface, low-DNA binding tubes and excess of BSA was used in all reactions. Reactions were quenched and AP sites cleaved in 10% piperidine at 90°C for 20 min. Samples were dried by vacuum centrifugation and suspended in formamide-containing loading buffer. Product and substrate were separated in 12% PAGE/7M urea–0.5× TBE gels, bands visualised in ChemiDoc™ Imager (Bio-Rad) and quantified by Image Lab software (Bio-Rad). Importantly, all assays in which two parameters were compared (e.g. RPA-coated versus naked substrate or WT versus mutated protein) were performed in parallel with the exact same DNA/protein dilutions.

For “WH domain: purified RPA2-WH domain, RPA2 residues 172-270”, the “effect on uracil excision from naked ss- and dsDNA substrates” value is on record as “little effect”. Also, where the note is “RPA-bound”, the “effect on uracil excision from RPA-bound ss- and dsDNA substrates” value is listed as “markedly reduced”.
